How the values were obtained:
Assay in all cases: hyphae penetrating the artificial cell wall, fludioxonil in culture solution
Type in all cases: cell-based
Phoma multirostrata = conditions: Comparative Example 1, fludioxonil 133 mg/L, 25° C., 72 hours
From the text: (§1) Biscogniauxia maritima, Penicillium olsonii, Phoma multirostrata, and Trichoderma asperellum, which are not tomato pathogens but were present on tomato leaves, were sampled from the tomato leaves, isolated, and then inoculated onto a potato dextrose agar medium. The tomato plants serving as the isolation sources were sampled at a plurality of sites. The isolation method was as follows: into a clean resin container or resin bag, several tomato leaves sampled were placed together with a fungus collection solution composed of physiological saline containing 0.1% surfactant Tween 80 (SIGMA-ALDRICH), and stirred for 1 minute to transfer the fungi adhering to the leaves to the fungus collection solution; this fungus collection solution was diluted, and applied to a potato dextrose agar medium containing 100 mg/L of streptomycin sulfate (Wako) by the spread plate culture technique; subsequently, the medium was incubated at 25° C. for several days and, from the produced fungus colonies, the isolation was performed. We requested Tama Laboratory, (general incorporated association) Japan Food Research Laboratories to perform identification. The above-described Biscogniauxia maritima, Penicillium olsonii, Phoma multirostrata, and Trichoderma asperellum isolated and then inoculated onto the potato dextrose agar medium were left static at a temperature of 25° C. for a week. Subsequently, to the potato dextrose agar medium on which the four species of fungi were cultured with sufficient hyphal growth or sufficient sporulation, several milliliters of sterile pure water was dropped; the surface of the hyphae was rubbed with, for example, a platinum loop or a brush, to obtain a disintegrated hypha-spore mixed suspension.
(§2) The above-described container having, at the bottom surface, the artificial cell wall including the polyethylene terephthalate film (substrate) having, on its back surface, the cellulose membrane was placed on a culture medium container (culture-solution storage), to provide a device for detecting a tomato pathogenic fungus. […]

Penicillium olsonii = conditions: Comparative Example 1, fludioxonil 133 mg/L, 25° C., 72 hours
From the text: as §1, §2

Biscogniauxia maritima = conditions: Comparative Example 1, fludioxonil 133 mg/L, 25° C., 72 hours
From the text: as §1, §2

Passalora fulva = conditions: 25° C., 72 hours
Experimental: Passalora fulva, which is one of tomato pathogens and is a pathogenic fungus that causes tomato leaf mold, was inoculated onto a potato dextrose agar medium. Subsequently, the medium was left static at a temperature of 23° C. for one to two weeks. Passalora fulva was distributed by The Genetic Resources Center, The National Agriculture and Food Research Organization (MAFF No. 726744). Subsequently, to the potato dextrose agar medium having cultured Passalora fulva with sufficient hyphal growth, several milliliters of sterile pure water was dropped, and the surface of the hyphae was rubbed with, for example, a platinum loop or a brush, to obtain a disintegrated hypha-spore mixed suspension.
(§3) The above-described container having, at the bottom surface, the artificial cell wall including the polyethylene terephthalate film (substrate) having, on its back surface, the cellulose membrane was placed on a culture medium container (culture-solution storage), to provide a device for detecting a tomato pathogenic fungus. The culture medium container was a 24-well flat-bottom culture plate (Corning Incorporated, trade name: 24 Well Cell Culture Cluster Flat Bottom). Between the culture medium container and the artificial-cell-wall-formed container, 600 μL of a liquid culture medium (culture solution) was charged so as to be in contact with the back surface of the artificial-cell-wall-formed container. […]
(§4) Subsequently, sterile purified water was added such that the total volume with such a disintegrated hypha-spore mixed suspension became 200 μL. The tomato-pathogenic-fungus selection method device in which the seven species of fungi were added was left to stand at a temperature of 25° C. for 72 hours, and the number of hyphae penetrating the artificial cell wall and observed at the back surface was visually counted using an optical microscope. […]

Trichoderma asperellum = tested on: Trichoderma asperellum
From the text: as §1, §2

[1] = tested on: Pseudocercospora fuligena; conditions: 25° C., 72 hours
Experimental: Pseudocercospora fuligena, which is one of tomato pathogens and is a pathogenic fungus that causes tomato Cercospora leaf mold, was inoculated onto a potato dextrose agar medium. Subsequently, the medium was left static at a temperature of 28° C. for a week. Pseudocercospora fuligena was distributed by The Genetic Resources Center, The National Agriculture and Food Research Organization (MAFF No. 306728). Subsequently, hyphae of Pseudocercospora fuligena were transferred from the potato dextrose agar medium to a burdock root powder agar medium, further left static for one to two weeks at a temperature of 28° C.; after hyphae sufficiently grew again, the surface of the hyphae was subjected to a mechanical stress such as rubbing with, for example, a platinum loop or a brush; subsequently, the medium was left under irradiation with black light for four days or longer, subsequently left in a room-temperature environment for two weeks or longer, to promote sporulation again. To the resultant burdock root powder agar medium having cultured Pseudocercospora fuligena, several milliliters of sterile pure water was dropped, and the surface of the hyphae was rubbed with, for example, a platinum loop or a brush, to obtain a disintegrated hypha-spore mixed suspension.
as §2, §4

Botrytis cinerea = conditions: 25° C., 72 hours
Experimental: Botrytis cinerea, which is one of tomato pathogens and is a pathogenic fungus that causes tomato gray mold, was inoculated onto a potato dextrose agar medium (Difco™ Potato Dextrose Agar). Subsequently, the medium was left static at a temperature of 25° C. for a week. The Botrytis cinerea was given by Associate Professor Shimizu, Faculty of Applied Biological Sciences, Gifu University. Subsequently, the potato dextrose agar medium having cultured Botrytis cinerea with sufficient hyphal growth was left under irradiation with black light for four days or longer, and subsequently left in a room-temperature environment for two weeks or longer, to promote sporulation. To the resultant potato dextrose agar medium having cultured Botrytis cinerea, several milliliters of sterile pure water was dropped, and the surface of the hyphae was rubbed with, for example, a platinum loop or a brush, to obtain a disintegrated hypha-spore mixed suspension.
as §3, with “Bottom).” for “Bottom). Between the culture medium container and the artificial-cell-wall-formed container, 600 μL of a liquid culture medium (culture solution) was charged so as to be in contact with the back surface of the artificial-cell-wall-formed container.”
as §4

[2] = Comparative Example 1, fludioxonil 133 mg/L
[3] = Example 1, fludioxonil 0.5 mg/L
[4] = Example 2, fludioxonil 1.3 mg/L

N#Cc1c[nH]cc1-c1cccc2c1OC(F)(F)O2 [fludioxonil]
hyphae penetrating the artificial cell wall (Phoma multirostrata): not observed
hyphae penetrating the artificial cell wall (Penicillium olsonii): not observed
hyphae penetrating the artificial cell wall (Biscogniauxia maritima): not observed
hyphae penetrating the artificial cell wall (Passalora fulva; [2]): not observed
hyphae penetrating the artificial cell wall (Passalora fulva; [3]): had hyphae penetrating the artificial cell wall
hyphae penetrating the artificial cell wall (Passalora fulva; [4]): had hyphae penetrating the artificial cell wall
hyphae penetrating the artificial cell wall (Trichoderma asperellum; Comparative Example 1, fludioxonil 133 mg/L, 25° C., 72 hours): not observed
effect of excluding Trichoderma asperellum (number of hyphae penetrating the artificial cell walls) (Trichoderma asperellum; Comparative Example 2, fludioxonil 0.1 mg/L (1/1000 of the concentration that provides the agricultural chemical effect)): not observed
growth of Trichoderma asperellum (number of hyphae penetrating the artificial cell walls) (Trichoderma asperellum; Comparative Example 2, fludioxonil 0.5 mg/L (1/250 of the concentration that provides the agricultural chemical effect)): inhibited
hyphae penetrating the artificial cell wall [1, 2]: not observed
hyphae penetrating the artificial cell wall [1, 3]: had hyphae penetrating the artificial cell wall
hyphae penetrating the artificial cell wall [1, 4]: had hyphae penetrating the artificial cell wall
hyphae penetrating the artificial cell wall (Botrytis cinerea; [2]): not observed
hyphae penetrating the artificial cell wall (Botrytis cinerea; [3]): had hyphae penetrating the artificial cell wall
hyphae penetrating the artificial cell wall (Botrytis cinerea; [4]): had hyphae penetrating the artificial cell wall

From patent publication US12258611B2, “Device for detecting tomato pathogenic fungus and detection method using the same” (Panasonic Intellectual Property Management Co., Ltd., priority 2018, dated 2025)
